Source: PubChem BioAssay (NCI)
Where “and” joins values, the source holds several entries; their conditions need not be identical. Equal values may be shown once.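 48-hour exposure; five concentrations; linearly interpolated endpoints. GI50 marks 50% less growth. Definition used: TGI = concentration required for complete inhibition of growth.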

Experiments:
Assay in all cases: NCI-60 cell line screen, 48 h
HS 578T breast = test system: HS 578T breast
MCF7 breast = test system: MCF7 breast
RPMI-8226 leukemia = test system: RPMI-8226 leukemia
ACHN renal = test system: ACHN renal
SNB-75 CNS = test system: SNB-75 CNS
NCI-H23 lung = test system: NCI-H23 lung
A549 NSCLC = test system: A549 NSCLC
UACC-257 melanoma = test system: UACC-257 melanoma

SMILES	GI50 (HS 578T breast)	TGI (HS 578T breast)	GI50 (MCF7 breast)	TGI (MCF7 breast)	GI50 (RPMI-8226 leukemia)	TGI (RPMI-8226 leukemia)	GI50 (ACHN renal)	TGI (ACHN renal)	GI50 (SNB-75 CNS)	TGI (SNB-75 CNS)	GI50 (NCI-H23 lung)	TGI (NCI-H23 lung)	GI50 (A549 NSCLC)	TGI (A549 NSCLC)	GI50 (UACC-257 melanoma)	TGI (UACC-257 melanoma)
Cc1cc(S(=O)(=O)Nc2nc3ccccc3c(=O)n2Cc2ccco2)c(S)cc1Cl	30.5 µM	> 100 µM	41.5 µM	> 100 µM	27 µM	> 100 µM	49.8 µM	> 100 µM	97 µM	> 100 µM	46 µM	> 100 µM	48 µM	> 100 µM	> 100 µM	> 100 µM
CC[C@]12C=CCN3CC[C@@]4(c5ccc(OC)cc5N(C)[C@H]4[C@@](O)(C(=O)OC)[C@@H]1OC(=O)CCC(=O)O[C@H]1CC[C@H]4[C@@H]5CCC6=CC(=O)CC[C@@H]6[C@H]5CC[C@]14C)[C@@H]32	2.38 µM	> 50 µM	1.52 µM	> 50 µM	1.07 µM	3.11 µM	1.57 µM	> 50 µM	1.08 µM	31.4 µM	1.98 µM	> 50 µM	1.64 µM	> 50 µM	2.65 µM	> 50 µM
CS(=O)(=O)Nc1cc(-c2ccc3ncc(C#N)c(Nc4ccc(F)c(Cl)c4)c3c2)cnc1Cl	0.131 µM	0.798 µM	0.0946 µM	> 100 µM	0.0833 µM	0.469 µM	0.304 µM	> 100 µM	0.0251 µM	0.507 µM	0.108 µM	3.91 µM	0.468 µM	3.12 µM	0.194 µM	2.14 µM
COc1ccc(OC)c(C2=C(c3cn(C)c4ccccc34)C(=O)NC2=O)c1	> 16.9 µM	> 25 µM	> 20.7 µM	> 25 µM	> 25 µM	> 25 µM	> 25 µM	> 25 µM	> 25 µM	> 25 µM	> 25 µM	> 25 µM	> 25 µM	> 25 µM	> 25 µM	> 25 µM
CN1C(=O)C(N=Nc2ccc([N+](=O)[O-])cc2)SC1=S (stereo not drawn)	2.47 µM and 16.2 µM	22.5 µM and > 100 µM	6.1 µM and 16.6 µM	> 100 µM	2.62 µM and 2.09 µM	52.4 µM and 18 µM	3.19 µM and 9.51 µM	99 µM and 62.4 µM	3.23 µM and 16.1 µM	67.2 µM and 89.1 µM	3.89 µM and 7.46 µM	77.1 µM and 76.9 µM	5.78 µM and 14.1 µM	> 100 µM	3.63 µM and 10.9 µM	27.1 µM and 54.4 µM
CCOc1cc(Cl)c(C(C)NC(=O)c2cccc(OC)c2)cc1OCC (stereo not drawn)	11.8 µM	> 100 µM	4.6 µM	> 100 µM	16.1 µM	> 100 µM	20.1 µM	> 100 µM	4.79 µM	49.9 µM	21.7 µM	> 100 µM	8.59 µM	> 100 µM	37 µM	> 100 µM
CCOC(=O)C#Cc1cccc(C#CC(=O)OCC)c1	–	> 30.3 µM	–	15.6 µM	–	13 µM	–	11.6 µM	–	13.4 µM	–	10.6 µM	–	16.6 µM	–	24.2 µM
Clc1nc(Cl)c2ncn(-c3ccccc3)c2n1	7.13 µM	64.9 µM	4.09 µM	24.3 µM	–	–	1.96 µM	4.12 µM	2.93 µM	13.9 µM	2.14 µM	4.84 µM	12.9 µM	29.8 µM	6.86 µM	20.2 µM
COC(=O)C1c2cc3c(c(O)c2CCC1(C)O)C(=O)c1c(O)cc2c(c1C3=O)OC1OC2(C)C(O)C(N(C)C)C1O (stereo not drawn)	–	3.77 µM	–	2.5 µM	–	–	–	1.17 µM	–	1.37 µM	–	1.99 µM	–	0.916 µM	–	0.739 µM
O=C(/C=C(/C=C/c1cccc2[nH]ccc12)OB(F)F)/C=C/c1cccc2[nH]ccc12	1.5 µM	> 100 µM	0.436 µM	9.45 µM	0.354 µM	2.55 µM	0.514 µM	2.04 µM	–	–	0.838 µM	3.92 µM	1.62 µM	14.2 µM	2.15 µM	11.8 µM
COC(=O)C1C(C(=O)O)C2(c3ccccc3)C(=O)C1(c1ccccc1)C(c1ccc(OC)cc1)=C2c1ccc(OC)cc1 (stereo not drawn)	22.1 µM	72.3 µM	20.3 µM	38.9 µM	18.2 µM	48.5 µM	36.6 µM	> 100 µM	–	–	17.5 µM	33.7 µM	15.7 µM	33.5 µM	19.1 µM	43.9 µM
CC1(C)N=C(N)N=C(N)N1c1ccc(OCC(=O)Nc2ccc(S(=O)(=O)F)cc2Cl)c(Cl)c1	–	–	2.24 µM	> 100 µM	64.9 µM	> 100 µM	5.57 µM	> 100 µM	5.72 µM	> 100 µM	4.37 µM	> 100 µM	2.5 µM	> 100 µM	> 100 µM	> 100 µM
Nc1c(C(=O)Nc2cccc(Cl)c2)sc2nc3c(cc12)C(O)CCC3 (stereo not drawn)	1.62 µM	> 74 µM	0.344 µM	53.4 µM	0.36 µM	5.01 µM	1.04 µM	23.4 µM	0.373 µM	21.6 µM	0.711 µM	> 100 µM	0.465 µM	17.4 µM	–	–
CC(=O)[O-].CC(=O)[O-].O=C([CH-]C(=O)c1ccccc1)c1ccccc1.[Nd+3].[OH3+]	–	–	–	–	22.8 µM	> 100 µM	31.3 µM	> 100 µM	6.24 µM	32.9 µM	18.7 µM	57.7 µM	28.2 µM	84.3 µM	17.9 µM	54.9 µM
Cc1ccc2ncnc(N(C)C3CCCCC3)c2c1	> 100 µM	> 100 µM	41.3 µM	> 100 µM	6.11 µM	28.7 µM	29 µM	> 100 µM	–	–	26.5 µM	74.4 µM	16.1 µM	44.2 µM	–	–
O=C(Cc1cc(O)ccc1O)NO	> 100 µM	> 100 µM	16.5 µM	34.9 µM	19 µM	40 µM	> 100 µM	> 100 µM	–	–	> 100 µM	> 100 µM	89.4 µM	> 100 µM	59.9 µM	> 100 µM
CSC1=CC(=O)c2ccccc2C1=O	–	–	1.72 µM	3.65 µM	2.61 µM	7.96 µM	1.66 µM	3.07 µM	11.6 µM	24.2 µM	3.45 µM	17.5 µM	24.2 µM	64.8 µM	2.04 µM	4.36 µM
